Experiments:
[1] = test system: human hepatocarcinoma cell line (SMMC-7721); assay: MTT cytotoxic assay, SMMC-7721; type: cell-based; settings: 48 h exposure
Description: (§1) All the compounds (1–3, 4a–o) were evaluated for their in vitro cytotoxic activity against three cancer cell lines including human breast cancer cell line (MCF-7), human hepatocarcinoma cell line (SMMC-7721), human cervical carcinoma cell line (HeLa), and a noncancerous human hepatocyte cell line (LO2) using the MTT assay method. An anticancer drug etoposide (VP-16) was co-assayed as the positive control. The results of the test compounds shown as IC50 values (concentration required to inhibit tumor cell proliferation by 50%), are listed in Table 1.
(§2) The in vitro cytotoxic activities of the quinoxaline derivatives of DAA were evaluated against a human breast cancer cell line (MCF-7), human hepatocarcinoma cell line (SMMC-7721), human cervical carcinoma cell line (HeLa) and noncancerous human hepatocyte cells (LO2) via the MTT colorimetric method. Briefly, different tumor cells were grown in DMEM supplemented with 10% fetal bovine serum, penicillin (100 U/mL), and streptomycin (50 μg/mL). Cells were harvested at the log phase of growth and seeded in 96-well plates (100 μL/well at a density of 2 × 10^5 cells/mL). After 24 h of incubation at 37 °C and 5% CO2 to allow for cell attachment, cultures were exposed to various concentrations of the isolated compounds for 48 h. Finally, the MTT solution (2.5 mg/mL in PBS) was added (40 μL/well). Plates were further incubated for 4 h at 37 °C, and the formazan crystals formed were dissolved by adding 150 μL/well of DMSO. Absorption at 570 nm was measured with an ELISA plate reader. The results were expressed as IC50 values with standard deviations, which were defined as the concentrations at which a 50% survival of the cells was discerned. Etoposide (VP-16) was co-assayed as the positive control.

[2] = test system: noncancerous human hepatocyte cells (LO2); assay: MTT cytotoxic assay, LO2; type: cell-based; settings: 48 h exposure, noncancerous hepatocytes
Description: as §1, §2

[3] = test system: human cervical carcinoma cell line (HeLa); assay: MTT cytotoxic assay, HeLa; type: cell-based; settings: 48 h exposure
Description: as §1, §2

[4] = test system: human breast cancer cell line (MCF-7); assay: MTT cytotoxic assay, MCF-7; type: cell-based; settings: MCF7, 48 h exposure
Description: as §1, §2

[5] = test system: three cancer cell lines (MCF-7, SMMC-7721, HeLa); assay: MTT cytotoxic assay, summary statements over the three cancer cell lines; type: cell-based, human; settings: for cytotoxic activity against the three cancer cell lines (in words): MCF-7, SMMC-7721, HeLa; for IC50: Homo sapiens, at least one of MCF-7, SMMC-7721, HeLa, strong cytotoxicity, read-out: IC50 against at least one cancer cell line
Description: as §1, §2

| Structure (SMILES) | IC50 [1] [µM] | IC50 [2] [µM] | IC50 [3] [µM] | IC50 [4] [µM] | cytotoxicity to HeLa and/or SMMC-7721 cell lines (in words) [5] | cytotoxic activity against the three cancer cell lines (in words) [5] | IC50 [5] [µM] |
| --- | --- | --- | --- | --- | --- | --- | --- |
| CC(C)c1ccc2c(c1)CC[C@H]1[C@](C)(C(=O)O)CCC[C@]21C [Compound 1, Dehydroabietic acid] | > 50 | > 50 | > 50 | > 50 | – | – | – |
| COC(=O)[C@]1(C)CCC[C@]2(C)c3cc(Br)c(N)c(N)c3CCC12 (stereo partly shown) [Compound 2] | > 50 | > 50 | 43.3 ± 3.26 | > 50 | mild cytotoxicity | – | – |
| COC(=O)[C@]1(C)CCC[C@]2(C)c3cc(Br)c4nc(CBr)c(CBr)nc4c3CCC12 (stereo partly shown) [Compound 3] | 45.8 ± 5.28 | > 50 | 37.7 ± 3.75 | > 50 | mild cytotoxicity | – | – |
| COC(=O)[C@]1(C)CCC[C@]2(C)c3cc(Br)c4nc(CN(C)C)c(CN(C)C)nc4c3CCC12 (stereo partly shown) [Compound 4a, Methyl 12-bromo-2′,3′-bis((dimethylamino)methyl)-13,14-pyrazinyldeisopropyl-dehydroabietate] | 1.65 ± 0.22 | 15.7 ± 0.65 | 2.08 ± 0.43 | 2.36 ± 0.29 | – | – | – |
| CCCN(CCC)Cc1nc2c(Br)cc3c(c2nc1CN(CCC)CCC)CCC1[C@](C)(C(=O)OC)CCC[C@]31C (stereo partly shown) [Compound 4c, Methyl 12-bromo-2′,3′-bis((dipropylamino)methyl)-13,14-pyrazinyldeisopropyl-dehydroabietate] | 11 ± 0.58 | > 50 | 8.67 ± 0.65 | 21 ± 1.27 | – | – | – |
| CCCCN(CCCC)Cc1nc2c(Br)cc3c(c2nc1CN(CCCC)CCCC)CCC1[C@](C)(C(=O)OC)CCC[C@]31C (stereo partly shown) [Compound 4d, Methyl 12-bromo-2′,3′-bis((dibutylamino)methyl)-13,14-pyrazinyldeisopropyl-dehydroabietate] | 32.7 ± 2.69 | > 50 | 25.3 ± 3.01 | 28.1 ± 0.92 | – | weak activity | – |
| COC(=O)[C@]1(C)CCC[C@]2(C)c3cc(Br)c4nc(CN5CCCC5)c(CN5CCCC5)nc4c3CCC12 (stereo partly shown) [Compound 4e, Methyl 12-bromo-2′,3′-bis(pyrrolidin-1-ylmethyl)-13,14-pyrazinyldeisopropyl-dehydroabietate] | 18.6 ± 2.37 | > 50 | 12.8 ± 1.26 | 20.4 ± 1.51 | – | moderate cytotoxic activity | – |
| COC(=O)[C@]1(C)CCC[C@]2(C)c3cc(Br)c4nc(CN5CCCCC5)c(CN5CCCCC5)nc4c3CCC12 (stereo partly shown) [Compound 4f, Methyl 12-bromo-2′,3′-bis(piperidin-1-ylmethyl)-13,14-pyrazinyldeisopropyl-dehydroabietate] | 7.71 ± 0.82 | 42.2 ± 2.78 | 5.98 ± 0.37 | 8.95 ± 0.63 | – | – | < 10 |
| COC(=O)[C@]1(C)CCC[C@]2(C)c3cc(Br)c4nc(CN5CCCCCC5)c(CN5CCCCCC5)nc4c3CCC12 (stereo partly shown) [Compound 4g, Methyl 2′,3′-bis(azepan-1-ylmethyl)-12-bromo-13,14-pyrazinyldeisopropyl-dehydroabietate] | 27.9 ± 2.91 | > 50 | 32 ± 4.21 | > 50 | – | weak activity | – |
| COC(=O)[C@]1(C)CCC[C@]2(C)c3cc(Br)c4nc(CN5CCOCC5)c(CN5CCOCC5)nc4c3CCC12 (stereo partly shown) [Compound 4h, Methyl 12-bromo-2′,3′-bis(morpholinomethyl)-13,14-pyrazinyldeisopropyl-dehydroabietate] | 16.3 ± 1.85 | 36.6 ± 3.12 | 9.67 ± 1.13 | 12.3 ± 1.03 | – | – | – |
| COC(=O)[C@]1(C)CCC[C@]2(C)c3cc(Br)c4nc(CN5CCNCC5)c(CN5CCNCC5)nc4c3CCC12 (stereo partly shown) [Compound 4i, Methyl 12-bromo-2′,3′-bis(piperazin-1-ylmethyl)-13,14-pyrazinyldeisopropyl-dehydroabietate] | 4.32 ± 0.64 | 21.9 ± 2.7 | 5.05 ± 0.72 | 5.89 ± 0.56 | – | – | < 10 |
| COC(=O)[C@]1(C)CCC[C@]2(C)c3cc(Br)c4nc(CN5CCN(C)CC5)c(CN5CCN(C)CC5)nc4c3CCC12 (stereo partly shown) [Compound 4j, Methyl 12-bromo-2′,3′-bis((4-methylpiperazin-1-yl)methyl)-13,14-pyrazinyl-deisopropyl-dehydroabietate] | 8.03 ± 0.7 | 29.5 ± 3.61 | 6.62 ± 0.59 | 12.2 ± 0.75 | – | – | < 10 |
| CCN1CCN(Cc2nc3c(Br)cc4c(c3nc2CN2CCN(CC)CC2)CCC2[C@](C)(C(=O)OC)CCC[C@]42C)CC1 (stereo partly shown) [Compound 4k, Methyl 12-bromo-2′,3′-bis((4-ethylpiperazin-1-yl)methyl)-13,14-pyrazinyl-deisopropyl-dehydroabietate] | 26.4 ± 3.73 | > 50 | 13.5 ± 2.21 | 38.7 ± 2.87 | – | moderate cytotoxic activity | – |
| COC(=O)[C@]1(C)CCC[C@]2(C)c3cc(Br)c4nc(Cn5ccnc5)c(Cn5ccnc5)nc4c3CCC12 (stereo partly shown) [Compound 4l, Methyl 12-bromo-2′,3′-bis((1H-imidazol-1-yl)methyl)-13,14-pyrazinyl-deisopropyl-dehydroabietate] | 15.3 ± 2.06 | > 50 | 12.7 ± 1.35 | 22.8 ± 3.21 | – | moderate cytotoxic activity | – |
| COC(=O)[C@]1(C)CCC[C@]2(C)c3cc(Br)c4nc(Cn5ccnn5)c(Cn5ccnn5)nc4c3CCC12 (stereo partly shown) [Compound 4m, Methyl 12-bromo-2′,3′-bis((1H-1,2,3-triazol-1-yl)methyl)-13,14-pyrazinyl-deisopropyl-dehydroabietate] | 4.66 ± 0.42 | 18.4 ± 1.73 | 2.18 ± 0.37 | 3.73 ± 0.62 | – | – | < 10 |
| COC(=O)[C@]1(C)CCC[C@]2(C)c3cc(Br)c4nc(Cn5cnnn5)c(Cn5cnnn5)nc4c3CCC12 (stereo partly shown) [Compound 4n, Methyl 12-bromo-2′,3′-bis((1H-tetrazol-1-yl)methyl)-13,14-pyrazinyl-deisopropyl-dehydroabietate] | 10.9 ± 1.68 | > 50 | 13.3 ± 2.71 | 15.8 ± 0.81 | – | moderate cytotoxic activity | – |
| COC(=O)[C@]1(C)CCC[C@]2(C)c3cc(Br)c4nc(Cn5ncnn5)c(Cn5ncnn5)nc4c3CCC12 (stereo partly shown) [Compound 4o, Methyl 12-bromo-2′, 3′-bis((2H-tetrazol-2-yl)methyl)-13,14-pyrazinyl-deisopropyl-dehydroabietate] | 16.9 ± 1.95 | > 50 | 20.5 ± 3.12 | 24.4 ± 1.69 | – | moderate cytotoxic activity | – |
| COc1cc([C@@H]2c3cc4c(cc3[C@@H](O[C@@H]3O[C@@H]5CO[C@@H](C)O[C@H]5[C@H](O)[C@H]3O)[C@H]3COC(=O)[C@H]23)OCO4)cc(OC)c1O [Etoposide, reference compound] | 0.69 ± 0.18 | 8.89 ± 0.38 | 0.87 ± 0.16 | 0.73 ± 0.07 | – | – | – |

Reference: publication PMC6152277, “Synthesis and Evaluation of New Quinoxaline Derivatives of Dehydroabietic Acid as Potential Antitumor Agents” (Molecules : A Journal of Synthetic Chemistry and Natural …, 2017)
